Tested on: (25-35) β-amyloid peptide fragment induced cognitive deficits model in rats
Experiment: (25-35) β-amyloid induced cognitive deficits, intranasal administration, SRT
Format: in vivo, rat
Conditions: intranasal, 15 daily doses from day 7 to 21, test 24 hrs after the last administration
From the text: FIG. 9. Effects of intranasal administration of FGLs on the β-amyloid neurotoxicity induced deficit on performance in the Social Recognition Test. Rats received an intranasal administration of FGLs at the stated doses or vehicle daily at days 7 to 21 after i.c.v. administration of the (25-35) β-amyloid (A-β) fragment. 8-10 animals per group. Results are expressed as Means and SEM of Recognition Ratio and analyzed by one-sample t-test: **p<0.05.
In this study, the (25-35) β-amyloid peptide fragment induced cognitive deficits model in rats was used to investigate the dose-response (0.08, 0.32 or 1.28 mg/kg) effect of FGLs administered intranasally daily for 15 doses from day 7 to day 21 post β-amyloid peptide i.c.v. injection. The social memory performance was evaluated using the SRT, 22 days after the β-amyloid injection. A statistically significant impairment of short-term memory was observed as a consequence of the (25-35) β-amyloid neurotoxicity in the rats receiving the (25-35) β-amyloid fragment plus vehicle.

EVYVVAENQQGKSKA [FGL, reference compound]
minimum effective dose, impaired short-term memory (SRT): 1.28 mg/kg

Source: patent US8470964B2, “Peptides derived from NCAM (FGLs)” (Enkam Pharmaceuticals A/S, priority 2007, dated 2013)
